From patent publication US20220323442A1, “ENTERIC-COATED PREPARATION COMPRISING XANTHINE OXIDASE INHIBITOR” (Nippon Chemiphar Co., Ltd., priority 2019, published 2022)

Assay: Volume average particle size (D50) by laser diffraction
Format: physicochemical
Settings: amorphous Compound 14 (spray dried), dispersed in 0.2% Aerosol OT aqueous solution, ultrasonic 30 seconds
Text: The volume average particle size (D50) can usually be measured by dispersing the measurement sample in a solvent such as water or ethanol and measuring the particle size distribution by a laser diffraction method. The measurement sample may be dispersed in a solvent by irradiation of ultrasonic waves or the like. The particle size distribution can be measured by a particle size distribution measuring device (for example, Shimadzu laser diffraction type particle size distribution measuring device SALD-2200). The volume average particle size (D50) can be determined from the obtained particle size distribution result. A commercially available software (for example, Shimadzu WingSALD-2200 version 1.02) can be used for data collection and analysis.
A volume average particle size (D50) of the obtained amorphous Compound 14 was measured with a Shimadzu laser diffraction type particle size distribution measuring device SALD-2200 using a dispersion obtained by adding about 2 mg of a sample to a 0.2% Aerosol OT aqueous solution and irradiating the solution with ultrasonic waves for 30 seconds for dispersion. Shimadzu WingSALD-2200 version 1.02 software was used for data collection and analysis. […] The volume average particle size (D50) of amorphous Compound 14 obtained from the particle size distribution was 2.949 μm.

N#Cc1cc(-c2nc3c(O)ncnc3s2)ccc1Oc1ccccc1 [Compound 14, 2-(3-Cyano-4-phenoxyphenyl)-7-hydroxythiazolo(5,4-d]pyrimidine]
volume average particle size (D50): 2.949 μm
